Source: US20070099915A1, “INHIBITORS OF THE HIV INTEGRASE ENZYME” (PFIZER INC., priority 2005, published 2007)
Where two headings read alike, the source gives them in different places.

Tests used:
[1] = target: T1, Full-length wild type HIV-1 integrase (SF1) (Human immunodeficiency virus type 1 group M subtype B, UniProt P04585); assay: Integrase strand-transfer scintillation proximity assay; type: biochemical
T1 construct: made in house; host or cells: E. coli BL21 (DE3)
Description: The annealed product represents preprocessed viral ds-DNA derived from the LTR U5 sequence of the viral genome. A ds-DNA control to test for non-specific interactions was made using a 3′ di-deoxy derivative of oligonucleotide #1 annealed to oligonucleotide #2. The CA overhang at the 5′ end of the non-biotinylated strand of the ds-DNA was created artificially by using a complimentary DNA oligonucleotide shortened by 2 base pairs. This configuration eliminates the requisite 3′ processing step of the integrase enzyme prior to the strand-transfer mechanism.
The annealed product had overhanging 3′ ends of poly(dA). […] The radiolabeled product was purified using a NENSORB cartridge and stored in stabilized aqueous solution (PerkinElmer).
Reagents: Streptavidin-coated polyvinyltoluene (PVT) SPA beads were purchased from Amersham Biosciences (Piscataway, N.J.). Cesium chloride was purchased from Shelton Scientific, Inc. (Shelton, Conn.). White, polystyrene, flat-bottom, non-binding surface, 96-well plates were purchased from Corning. All other buffer components were purchased from Sigma (St. Louis, Mo.) unless otherwise indicated.
Enzyme Construction: Full-length wild type HIV-1 integrase (SF1) sequence (amino acids 1-289) was constructed in a pET24a vector (Novagen, Madison, Wis.).
Enzyme Purification: Full length wild-type HIV Integrase was expressed in E. coli BL21 (DE3) cells and induced with 1 mM isopropyl-1 thio-β-D-galactopyranoside (IPTG) when cells reached an optical density between 0.8-1.0 at 600 nm. Cells were lysed by microfluidation in 50 mM HEPES pH 7.0, 75 mM NaCl, 5 mM DTT, 1 mM 4-(2-Aminoethyl)benzenesulfonylfluoride HCl (AEBSF). Lysate was then centrifuged 20 minutes at 11 k rpm in GSA rotor in Sorvall RC-5B at 4° C. Supernant was discarded and pellet resuspended in 50 mM HEPES pH 7.0, 750 mM NaCl, 5 mM DTT, 1 mM AEBSF and homogenized in a 40 mL Dounce homogenizer for 20 minutes on ice. Homogenate was then centrifuged 20 minutes at 11 k rpm in SS34 rotor in Sorvall RC-5B at 4° C. Supernant was discarded and pellet resuspended in 50 mM HEPES pH 7.0, 750 mM NaCl, 25 mM CHAPS, 5 mM DTT, 1 mM AEBSF. Preparation was then centrifuged 20 minutes at 11 k rpm in SS34 rotor in Sorvall RC-5B at 4° C.
Supernant was then diluted 1:1 with 50 mM HEPES pH 7.0, 25 mM CHAPS, 1 mM DTT, 1 mM AEBSF and loaded onto a Q-Sepharose column pre-equilibrated with 50 mM HEPES, pH 7.0, 375 mM NaCl, 25 mM CHAPS, 1 mM DTT, 1 mM AEBSF. The flow through peak was collected and NaCl diluted to 0.1 M with 50 mM HEPES pH 7.0, 25 mM CHAPS, 1 mM DTT, 0.5 mM AEBSF and loaded onto a SP-Sepharose column pre-equilibrated with 50 mM HEPES pH 7.0, 100 mM NaCl, 25 mM CHAPS, 1 mM DTT, 0.5 mM AEBSF. After washing the column with the equilibration buffer, a 100 to 400 mM NaCl gradient was run. The eluted integrase was concentrated and run on a S-300 gel diffusion column using 50 mM HEPES pH 7.0, 500 mM NaCl, 25 mM CHAPS, 1 mM DTT, 0.5 mM AEBSF. […] All columns were run in a 4° C. cold room.
Viral DNA Bead Preparation: Streptavidin-coated SPA beads were suspended to 20 mg/mL in 25 mM 3-morpholinopropanesulfonic acid (MOPS) (pH 7.2) and 1.0% NaN3. Biotinylated viral DNA was bound to the hydrated SPA beads in a batch process by combining […] of ds-DNA to 1 mg of suspended SPA beads (10 μL of 50 μM viral DNA to 1 mL of 20 mg/mL SPA beads). The mixture was incubated at 22° C. for a minimum of 20 min. with occasional mixing followed by centrifugation at 2500 rpm for 10 min.

[2] = tested on: HIV-1 RF virus in CEM-SS cells; assay: HIV-1 cell protection assay (XTT dye reduction); type: cell-based
Protocol: Six days later, 50 μl of XTT solution (1 mg/ml XTT tetrazolium and 20 nM phenazine methosulfate) were added to the wells and the plates were reincubated for four hours. Viability, as determined by the amount of XTT formazan produced, was quantified spectrophotometrically by absorbance at 450 nm.
Data from CPE assays were expressed as the percent of formazan produced in compound-treated cells compared to formazan produced in wells of uninfected, compound-free cells. […] The 50% cytotoxicity concentration (CC50) was calculated as the concentration of compound that decreased the percentage of formazan produced in uninfected, compound-treated cells to 50% of that produced in uninfected, compound-free cells. The therapeutic index was calculated by dividing the cytotoxicity (CC50) by the antiviral activity (EC50).

[3] = strand-transfer SPA, 246 nM integrase, 50 nM host DNA, 37° C., 50 min, read-out: IC50
[4] = Human immunodeficiency virus 1, 144 h, RF strain of HIV-1, CEM-SS cells, XTT read-out after six days, read-out: EC50
[5] = Human immunodeficiency virus 1, CEM-SS, 144 h

SMILES	IC50 [1, 3] [nM]	EC50 [2, 4] [nM]	IC50 [1] [nM]	EC50 [2, 5] [nM]
O=C1c2ncc3c(ccn3Cc3ccccn3)c2CCN1O [Example 87, 7-hydroxy-3-(pyridin-2-ylmethyl)-3,7,8,9-tetrahydro-6H-pyrrolo[2,3-c]-1,7-naphthyridin-6-one]	89	35	–	–
COCCN(Cc1cn(Cc2ccc(F)cc2)c2cnc3c(c12)CCN(O)C3=O)C(C)(C)C [Example 40, 1-{[tert-butyl(2-methoxyethyl)amino]methyl}-3-(4-fluorobenzyl)-7-hydroxy-3,7,8,9-tetrahydro-6H-pyrrolo[2,3-c]-1,7-naphthyridin-6-one]	24.4	4.6	–	–
Cc1cc2c(ncc3c2c(CN2CCN(C)C(=O)C2)cn3Cc2ccc(F)cc2)c(=O)n1O [Example 96, 3-(4-fluorobenzyl)-7-hydroxy-8-methyl-1-[(4-methyl-3-oxopiperazin-1-yl)methyl]-3,7-dihydro-6H-pyrrolo[2,3-c]-1,7-naphthyridin-6-one]	10	5	–	–
Cc1cc2c(ncc3c2c(CN(C)C)cn3Cc2ccc(F)cc2)c(=O)n1O [Example 42, 1-[(dimethylamino)methyl]-3-(4-fluorobenzyl)-7-hydroxy-8-methyl-3,7-dihydro-6H-pyrrolo[2,3-c]-1,7-naphthyridin-6-one]	8.1	0.43	–	–
CCN(C)Cc1cn(Cc2ccc(F)cc2)c2cnc3c(=O)n(O)ccc3c12 [Example 3, 1-{[ethyl(methyl)amino]methyl}-3-(4-fluorobenzyl)-7-hydroxy-3,7-dihydro-6H-pyrrolo[2,3-c]-1,7-naphthyridin-6-one]	–	2.5	–	–
O=C1c2ncc3c(c(CCNC4CCOCC4)cn3Cc3ccc(F)cc3)c2CCN1O [Example 112, 3-(4-flourobenzyl)-7-hydroxy-1-(2-(tetrahydro-2H-pyran-4-ylamino)ethyl)-8,9-dihydro-3H-pyrrolo[2,3-c][1,7]naphthyridin-6(7H)-one]	28	63	–	–
COCCN(C)CCc1cn(Cc2ccc(F)cc2)c2cnc3c(c12)CCN(O)C3=O [Example 118, 3-(4-fluorobenzyl)-7-hydroxy-1-{2-[(2-methoxyethyl)(methyl)amino]ethyl}-3,7,8,9-tetrahydro-6H-pyrrolo[2,3-c]-1,7-naphthyridin-6-one]	20	13	–	–
COCCCc1cn(Cc2ccc(F)cc2)c2cnc3c(c12)CCN(O)C3=O [Example 94, 3-(4-fluorobenzyl)-7-hydroxy-1-(3-methoxypropyl)-3,7,8,9-tetrahydro-6H-pyrrolo[2,3-c]-1,7-naphthyridin-6-one]	12	0.25	–	–
O=C1c2ncc3c(c(CO)cn3Cc3ccc(F)cc3)c2CCN1O [Example 25, 3-(4-fluorobenzyl)-7-hydroxy-1-(hydroxymethyl)-3,7,8,9-tetrahydro-6H-pyrrolo[2,3-c]-1,7-naphthyridin-6-one]	–	–	12	3
CC(=O)c1cn(Cc2ccc(F)cc2)c2cnc3c(c12)CCN(O)C3=O [Example 68, 1-acetyl-3-(4-fluorobenzyl)-7-hydroxy-3,7,8,9-tetrahydro-6H-pyrrolo[2,3-c]-1,7-naphthyridin-6-one-methane (1:1)]	12	–	–	3
CN(C)Cc1cn(Cc2ccc(F)cc2)c2cnc3c(c12)CCN(O)C3=O [Example 12, 1-[(dimethylamino)methyl]-3-(4-fluorobenzyl)-7-hydroxy-3,7,8,9-tetrahydro-6H-pyrrolo[2,3-c]-1,7-naphthyridin-6-one]	–	–	–	13
O=c1c2ncc3c(c(CN4CCCC4)cn3Cc3ccc(F)cc3)c2ccn1O [Example 6, 3-(4-fluorobenzyl)-7-hydroxy-1-(pyrrolidin-1-ylmethyl)-3,7-dihydro-6H-pyrrolo[2,3-c]-1,7-naphthyridin-6-one]	–	5.3	–	–
CC(CN(C)C)NCc1cn(Cc2ccc(F)cc2)c2cnc3c(=O)n(O)ccc3c12 (stereo not shown) [Example 4, 1-({[2-(dimethylamino)-1-methylethyl]amino}methyl)-3-(4-fluorobenzyl)-7-hydroxy-3,7-dihydro-6H-pyrrolo[2,3-c]-1,7-naphthyridin-6-one]	–	51	–	–
COCCN(C)Cc1cn(Cc2ccc(F)cc2)c2cnc3c(c12)CCN(O)C3=O [Example 77, 3-(4-fluorobenzyl)-7-hydroxy-1-{[(2-methoxyethyl)(methyl)amino]methyl}-3,7,8,9-tetrahydro-6H-pyrrolo[2,3-c]-1,7-naphthyridin-6-one]	–	–	–	2
O=C1c2ncc3[nH]ccc3c2CCN1O [Example 83, 7-hydroxy-3,7,8,9-tetrahydro-6H-pyrrolo[2,3-c]-1,7-naphthyridin-6-one]	–	14	–	–
O=C1c2ncc3c(c(CN4CCCCC4)cn3Cc3ccc(F)cc3)c2CCN1O [Example 38, 3-(4-fluorobenzyl)-7-hydroxy-1-(piperidin-1-ylmethyl)-3,7,8,9-tetrahydro-6H-pyrrolo[2,3-c]-1,7-naphthyridin-6-one]	–	–	–	5.4
O=C1c2ncc3c(c(S(=O)(=O)N4CCCC4)cn3Cc3ccc(F)cc3)c2CCN1O [Example 13, 3-(4-fluorobenzyl)-7-hydroxyl(pyrrolidin-1-ylsulfonyl)-3,7,8,9-tetrahydro-6H-pyrrolo[2 3-c]-1,7-naphthyridin-6-one]	–	–	–	3
O=C1c2ncc3c(c(CN4CCC(F)(F)C4)cn3Cc3ccc(F)cc3)c2CCN1O [Example 37, 1-[(3,3-difluoropyrrolidin-1-yl)methyl]-3-(4-fluorobenzyl)-7-hydroxy-3,7,8,9-tetrahydro-6H-pyrrolo[2,3-c]-1,7-naphthyridin-6-one]	–	–	–	1.5
CCCCC1Cc2c(ncc3c2ccn3Cc2ccc(F)cc2)C(=O)N1O (stereo not shown) [Example 1, 8-butyl-3-(4-fluorobenzyl)-7-hydroxy-3,7,8,9-tetrahydro-6H-pyrrolo[2,3-c]-1,7-naphthyridin-6-one]	–	460	–	–
O=c1c2ncc3c(c(CN4CCC(CO)CC4)cn3Cc3ccc(F)cc3)c2ccn1O [Example 5, 3-(4-fluorobenzyl)-7-hydroxy-1-{[4-(hydroxymethyl)piperidin-1-yl]methyl}-3,7-dihydro-6H-pyrrolo[2,3-c]-1,7-naphthyridin-6-one]	–	12	–	–
N#Cc1cc(F)ccc1Cn1ccc2c3c(ncc21)C(=O)N(O)CC3 [Example 91, 5-fluoro-2-[(7-hydroxy-6-oxo-6,7,8,9-tetrahydro-3H-pyrrolo[2,3-c]-1,7-naphthyridin-3-yl)methyl]benzonitrile]	–	–	–	2
C[C@H](O)CNCc1cn(Cc2ccc(F)cc2)c2cnc3c(=O)n(O)ccc3c12 [Example 2, 3-(4-fluorobenzyl)-7-hydroxy-1-({[(2S)-2-hydroxypropyl]amino}methyl)-3,7-dihydro-6H-pyrrolo[2,3-c]-1,7-naphthyridin-6-one]	–	60.9	–	–
